Measurements as given in ChEMBL document CHEMBL4507261, “Data for DCP probe A-192621” (2021).

How the values were obtained:
[1] = molecular target: Atypical kinase COQ8B, mitochondrial (Homo sapiens) (UniProt Q96D53); conditions: Compound concentration 1000.0 nM
[2] = tested on: Receptor-type tyrosine-protein kinase FLT3 (Homo sapiens), P36888 [D835Y]; conditions: Compound concentration 1000.0 nM
[3] = molecular target: Protein-tyrosine kinase 6 (Homo sapiens) (UniProt Q13882); conditions: Compound concentration 1000.0 nM
[4] = molecular target: Prostaglandin G/H synthase 1 (Homo sapiens) (UniProt P23219); assay: COX1(h) Eurofins-Cerep enzyme and uptake assay; conditions: Compound concentration 10.0 uM
[5] = molecular target: Dual specificity protein kinase CLK1 (Homo sapiens) (UniProt P49759); conditions: Compound concentration 1000.0 nM
[6] = molecular target: Rho-associated protein kinase 1 (Homo sapiens) (UniProt Q13464); conditions: Compound concentration 1000.0 nM
[7] = molecular target: Mitogen-activated protein kinase kinase kinase kinase 3 (Homo sapiens) (UniProt Q8IVH8); conditions: Compound concentration 1000.0 nM
[8] = molecular target: Serine/threonine-protein kinase ICK (Homo sapiens) (UniProt Q9UPZ9); conditions: Compound concentration 1000.0 nM
[9] = molecular target: Cyclin-dependent kinase 2 homolog (Plasmodium falciparum (isolate 3D7)) (UniProt P61075); conditions: Compound concentration 1000.0 nM
[10] = tested on: Fibroblast growth factor receptor 3 (Homo sapiens), P22607 [G697C]; conditions: Compound concentration 1000.0 nM
[11] = molecular target: Mitogen-activated protein kinase 7 (Homo sapiens) (UniProt Q13164); conditions: Compound concentration 1000.0 nM
[12] = molecular target: Ribosomal protein S6 kinase alpha-6 (Homo sapiens) (UniProt Q9UK32); conditions: Compound concentration 1000.0 nM
[13] = molecular target: Mitogen-activated protein kinase 11 (Homo sapiens) (UniProt Q15759); conditions: Compound concentration 1000.0 nM
[14] = molecular target: Cyclin-dependent kinase 4 (Homo sapiens) (UniProt P11802); conditions: Compound concentration 1000.0 nM
[15] = molecular target: Tyrosine-protein kinase SYK (Homo sapiens) (UniProt P43405); conditions: Compound concentration 1000.0 nM
[16] = tested on: Phosphatidylinositol 4,5-bisphosphate 3-kinase catalytic subunit alpha isoform (Homo sapiens), P42336 [I800L]; conditions: Compound concentration 1000.0 nM
[17] = molecular target: Mitogen-activated protein kinase kinase kinase 13 (Homo sapiens) (UniProt O43283); conditions: Compound concentration 1000.0 nM
[18] = molecular target: Fibroblast growth factor receptor 1 (Homo sapiens) (UniProt P11362); conditions: Compound concentration 1000.0 nM
[19] = molecular target: Glutamate NMDA receptor (Rattus norvegicus) (UniProt P35439+Q00959+Q00960+Q00961+Q62645+Q8VHN2+Q9R1M7); assay: PCP Eurofins-Cerep binding assay; assay type: protein-complex assay; set-up: ligand concentration 10 nM; conditions: filed as antagonist, Compound concentration 10.0 uM
[20] = molecular target: Mitogen-activated protein kinase 1 (Homo sapiens) (UniProt P28482); conditions: Compound concentration 1000.0 nM
[21] = molecular target: Serine/threonine-protein kinase ULK2 (Homo sapiens) (UniProt Q8IYT8); conditions: Compound concentration 1000.0 nM
[22] = tested on: Epidermal growth factor receptor (Homo sapiens), P00533 [UNDEFINED MUTATION]; conditions: Compound concentration 1000.0 nM
[23] = molecular target: Mitogen-activated protein kinase kinase kinase 3 (Homo sapiens) (UniProt Q99759); conditions: Compound concentration 1000.0 nM
[24] = molecular target: Serine/threonine-protein kinase 10 (Homo sapiens) (UniProt O94804); conditions: Compound concentration 1000.0 nM
[25] = molecular target: Dual specificity tyrosine-phosphorylation-regulated kinase 1B (Homo sapiens) (UniProt Q9Y463); conditions: Compound concentration 1000.0 nM
[26] = molecular target: Serine/threonine-protein kinase Chk2 (Homo sapiens) (UniProt O96017); conditions: Compound concentration 1000.0 nM
[27] = molecular target: Insulin receptor (Homo sapiens) (UniProt P06213); conditions: Compound concentration 1000.0 nM
[28] = molecular target: Serine/threonine-protein kinase TAO1 (Homo sapiens) (UniProt Q7L7X3); conditions: Compound concentration 1000.0 nM
[29] = molecular target: Ephrin type-A receptor 4 (Homo sapiens) (UniProt P54764); conditions: Compound concentration 1000.0 nM
[30] = molecular target: Cyclin-dependent kinase 2 (Homo sapiens) (UniProt P24941); conditions: Compound concentration 1000.0 nM
[31] = molecular target: Mitogen-activated protein kinase kinase kinase 14 (Homo sapiens) (UniProt Q99558); conditions: Compound concentration 1000.0 nM
[32] = molecular target: Tyrosine-protein kinase Blk (Homo sapiens) (UniProt P51451); conditions: Compound concentration 1000.0 nM
[33] = molecular target: Mitogen-activated protein kinase 8 (Homo sapiens) (UniProt P45983); conditions: Compound concentration 1000.0 nM
[34] = molecular target: Mitogen-activated protein kinase 6 (Homo sapiens) (UniProt Q16659); conditions: Compound concentration 1000.0 nM
[35] = molecular target: T1, Muscarinic acetylcholine receptor M4 (Homo sapiens) (UniProt P08173); assay: M4 (h) Eurofins-Cerep binding assay; set-up: ligand concentration 0.2 nM; conditions: filed as antagonist, Compound concentration 10.0 uM
T1 sequence (whole entry): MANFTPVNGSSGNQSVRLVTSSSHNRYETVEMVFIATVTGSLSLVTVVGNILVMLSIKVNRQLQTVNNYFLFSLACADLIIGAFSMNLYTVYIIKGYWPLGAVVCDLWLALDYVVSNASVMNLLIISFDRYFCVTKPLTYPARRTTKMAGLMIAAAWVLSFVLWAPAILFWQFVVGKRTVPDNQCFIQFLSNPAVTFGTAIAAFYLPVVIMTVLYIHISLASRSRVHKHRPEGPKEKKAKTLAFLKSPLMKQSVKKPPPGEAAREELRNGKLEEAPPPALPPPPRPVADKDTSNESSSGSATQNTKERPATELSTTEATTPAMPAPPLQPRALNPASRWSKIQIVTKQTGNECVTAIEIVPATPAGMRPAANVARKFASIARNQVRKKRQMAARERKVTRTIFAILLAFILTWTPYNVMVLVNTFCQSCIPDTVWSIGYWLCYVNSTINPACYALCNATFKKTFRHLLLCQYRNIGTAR

[36] = tested on: Tyrosine-protein kinase ABL1 (Homo sapiens), P00519 [T315I]; conditions: Compound concentration 1000.0 nM
[37] = molecular target: MAO-B (amine oxidase [flavin-containing] B) (Homo sapiens, UniProt P27338); assay: MAO-B (h) recombinant enzyme Eurofins-Cerep enzyme and uptake assay; set-up: incubation time 60 min, incubation temperature 37°C, substrate/stimulus/tracer D-Luciferin derivative (4 µM); conditions: probe D-Luciferin derivative (4 µM), compound concentration 10 uM, read-out: % Inhibition of Control Values (Mean n=2)

Chain of Mitogen-activated protein kinase 6 (Homo sapiens) (Q16659 whole entry): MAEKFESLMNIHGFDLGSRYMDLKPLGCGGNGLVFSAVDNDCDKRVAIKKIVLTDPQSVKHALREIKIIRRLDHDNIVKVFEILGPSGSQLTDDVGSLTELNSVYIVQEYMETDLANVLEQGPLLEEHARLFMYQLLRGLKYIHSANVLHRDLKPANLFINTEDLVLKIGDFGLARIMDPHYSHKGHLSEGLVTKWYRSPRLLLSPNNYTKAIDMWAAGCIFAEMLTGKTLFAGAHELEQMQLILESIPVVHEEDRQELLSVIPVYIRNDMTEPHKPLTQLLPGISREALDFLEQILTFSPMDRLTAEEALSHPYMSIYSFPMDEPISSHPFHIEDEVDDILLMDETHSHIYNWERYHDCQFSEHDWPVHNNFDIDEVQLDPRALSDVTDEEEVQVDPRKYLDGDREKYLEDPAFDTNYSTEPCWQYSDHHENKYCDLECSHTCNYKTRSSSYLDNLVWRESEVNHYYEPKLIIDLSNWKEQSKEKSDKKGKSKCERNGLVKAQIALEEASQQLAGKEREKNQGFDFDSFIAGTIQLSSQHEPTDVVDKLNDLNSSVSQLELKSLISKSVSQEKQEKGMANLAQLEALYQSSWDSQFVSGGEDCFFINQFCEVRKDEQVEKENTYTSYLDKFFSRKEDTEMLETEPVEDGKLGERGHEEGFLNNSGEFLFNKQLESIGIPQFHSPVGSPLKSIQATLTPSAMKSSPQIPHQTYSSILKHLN
Chain of Atypical kinase COQ8B, mitochondrial (Homo sapiens) (Q96D53 whole entry): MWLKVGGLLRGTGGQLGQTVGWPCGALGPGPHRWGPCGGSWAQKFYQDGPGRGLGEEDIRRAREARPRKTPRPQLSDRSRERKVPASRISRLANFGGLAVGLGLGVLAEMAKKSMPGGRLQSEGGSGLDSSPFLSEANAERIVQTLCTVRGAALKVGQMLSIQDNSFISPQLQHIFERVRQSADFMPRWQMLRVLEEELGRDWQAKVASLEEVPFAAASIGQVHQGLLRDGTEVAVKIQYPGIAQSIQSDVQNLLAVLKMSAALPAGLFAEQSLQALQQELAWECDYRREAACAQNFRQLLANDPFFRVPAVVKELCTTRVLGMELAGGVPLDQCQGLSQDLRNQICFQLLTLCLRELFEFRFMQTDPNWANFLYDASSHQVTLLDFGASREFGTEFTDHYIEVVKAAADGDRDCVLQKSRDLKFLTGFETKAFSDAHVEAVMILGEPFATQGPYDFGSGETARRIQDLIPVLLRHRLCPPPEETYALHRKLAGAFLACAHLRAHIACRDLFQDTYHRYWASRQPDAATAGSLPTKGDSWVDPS
Chain of Serine/threonine-protein kinase TAO1 (Homo sapiens) (Q7L7X3 whole entry): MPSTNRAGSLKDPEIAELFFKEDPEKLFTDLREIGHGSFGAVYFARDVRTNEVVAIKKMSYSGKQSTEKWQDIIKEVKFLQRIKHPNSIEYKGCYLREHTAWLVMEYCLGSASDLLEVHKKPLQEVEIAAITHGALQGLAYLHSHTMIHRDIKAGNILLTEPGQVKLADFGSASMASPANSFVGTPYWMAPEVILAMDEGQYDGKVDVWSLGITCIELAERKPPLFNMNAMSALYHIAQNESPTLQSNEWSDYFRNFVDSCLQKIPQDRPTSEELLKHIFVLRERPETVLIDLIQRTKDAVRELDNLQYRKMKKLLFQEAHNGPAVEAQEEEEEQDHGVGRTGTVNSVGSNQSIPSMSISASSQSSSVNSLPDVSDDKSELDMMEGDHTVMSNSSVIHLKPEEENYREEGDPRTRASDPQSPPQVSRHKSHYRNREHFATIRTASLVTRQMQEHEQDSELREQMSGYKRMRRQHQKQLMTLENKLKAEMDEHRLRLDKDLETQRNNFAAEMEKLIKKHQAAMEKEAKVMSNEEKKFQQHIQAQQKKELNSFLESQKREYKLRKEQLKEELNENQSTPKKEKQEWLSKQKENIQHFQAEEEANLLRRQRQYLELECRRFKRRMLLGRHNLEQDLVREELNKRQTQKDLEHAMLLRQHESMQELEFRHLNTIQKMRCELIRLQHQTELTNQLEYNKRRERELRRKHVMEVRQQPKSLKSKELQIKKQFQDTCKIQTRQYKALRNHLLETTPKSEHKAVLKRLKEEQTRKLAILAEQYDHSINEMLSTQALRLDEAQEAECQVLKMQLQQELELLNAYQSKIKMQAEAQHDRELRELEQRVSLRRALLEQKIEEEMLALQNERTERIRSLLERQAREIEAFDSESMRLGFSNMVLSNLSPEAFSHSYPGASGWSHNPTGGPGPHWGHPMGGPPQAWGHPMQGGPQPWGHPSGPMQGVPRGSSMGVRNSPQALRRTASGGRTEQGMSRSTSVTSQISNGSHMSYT
Chain of Serine/threonine-protein kinase ICK (Homo sapiens) (Q9UPZ9 whole entry): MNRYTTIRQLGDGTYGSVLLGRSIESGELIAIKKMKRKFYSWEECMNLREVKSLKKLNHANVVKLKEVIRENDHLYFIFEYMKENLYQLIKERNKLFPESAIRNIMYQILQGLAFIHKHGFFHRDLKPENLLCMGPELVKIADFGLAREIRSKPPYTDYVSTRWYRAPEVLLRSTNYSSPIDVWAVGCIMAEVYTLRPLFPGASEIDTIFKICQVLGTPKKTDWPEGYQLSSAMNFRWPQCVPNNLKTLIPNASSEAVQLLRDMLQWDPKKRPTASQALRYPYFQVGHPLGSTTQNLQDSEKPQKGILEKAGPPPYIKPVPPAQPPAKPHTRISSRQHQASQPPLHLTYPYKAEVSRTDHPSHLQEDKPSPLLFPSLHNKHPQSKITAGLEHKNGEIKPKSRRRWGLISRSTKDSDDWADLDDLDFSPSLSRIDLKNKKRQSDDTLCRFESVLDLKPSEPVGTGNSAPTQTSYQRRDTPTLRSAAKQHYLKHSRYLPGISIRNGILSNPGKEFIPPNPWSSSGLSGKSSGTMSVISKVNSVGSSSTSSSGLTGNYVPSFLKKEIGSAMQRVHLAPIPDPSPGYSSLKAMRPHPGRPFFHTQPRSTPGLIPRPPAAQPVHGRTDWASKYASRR
Chain of Mitogen-activated protein kinase kinase kinase 3 (Homo sapiens) (Q99759 whole entry): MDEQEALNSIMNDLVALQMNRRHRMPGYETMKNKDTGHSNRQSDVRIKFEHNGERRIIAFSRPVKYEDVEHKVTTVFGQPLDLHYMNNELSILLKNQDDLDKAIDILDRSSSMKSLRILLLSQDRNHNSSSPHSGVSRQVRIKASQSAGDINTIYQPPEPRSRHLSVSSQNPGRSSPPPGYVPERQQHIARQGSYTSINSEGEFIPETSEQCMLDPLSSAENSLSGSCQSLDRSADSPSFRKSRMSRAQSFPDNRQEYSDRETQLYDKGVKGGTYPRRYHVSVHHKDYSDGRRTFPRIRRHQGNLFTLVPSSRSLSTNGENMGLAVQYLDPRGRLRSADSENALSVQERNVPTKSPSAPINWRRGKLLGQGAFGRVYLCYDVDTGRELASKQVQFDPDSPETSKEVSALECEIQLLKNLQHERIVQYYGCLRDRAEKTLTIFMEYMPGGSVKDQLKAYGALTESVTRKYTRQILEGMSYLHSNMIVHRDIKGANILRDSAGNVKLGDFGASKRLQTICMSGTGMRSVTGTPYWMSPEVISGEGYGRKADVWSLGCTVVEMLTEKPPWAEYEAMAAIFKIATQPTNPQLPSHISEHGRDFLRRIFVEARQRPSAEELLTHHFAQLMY
Chain of Mitogen-activated protein kinase 11 (Homo sapiens) (Q15759 whole entry): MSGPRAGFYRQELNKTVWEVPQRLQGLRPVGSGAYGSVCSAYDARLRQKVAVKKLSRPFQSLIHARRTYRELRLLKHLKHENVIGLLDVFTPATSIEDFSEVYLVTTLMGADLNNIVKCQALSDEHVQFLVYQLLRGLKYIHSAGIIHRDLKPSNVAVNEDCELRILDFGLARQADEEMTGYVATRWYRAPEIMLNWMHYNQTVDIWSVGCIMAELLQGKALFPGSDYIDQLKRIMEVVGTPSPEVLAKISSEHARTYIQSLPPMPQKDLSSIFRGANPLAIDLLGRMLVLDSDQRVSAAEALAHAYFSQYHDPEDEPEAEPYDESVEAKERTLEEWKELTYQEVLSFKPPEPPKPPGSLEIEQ
Chain of Mitogen-activated protein kinase 8 (Homo sapiens) (P45983 whole entry): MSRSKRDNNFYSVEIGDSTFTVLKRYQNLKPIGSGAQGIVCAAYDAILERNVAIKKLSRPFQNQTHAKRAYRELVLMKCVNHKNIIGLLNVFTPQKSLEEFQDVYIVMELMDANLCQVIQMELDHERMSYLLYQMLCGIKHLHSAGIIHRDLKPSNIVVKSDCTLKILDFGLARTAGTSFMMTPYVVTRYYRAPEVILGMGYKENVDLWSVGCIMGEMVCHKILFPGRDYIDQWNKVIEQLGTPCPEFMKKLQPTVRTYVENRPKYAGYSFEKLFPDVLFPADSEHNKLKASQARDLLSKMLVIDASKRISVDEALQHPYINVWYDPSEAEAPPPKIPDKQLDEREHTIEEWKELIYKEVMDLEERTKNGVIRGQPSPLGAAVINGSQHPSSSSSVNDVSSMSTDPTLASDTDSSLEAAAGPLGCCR
Chain of Serine/threonine-protein kinase Chk2 (Homo sapiens) (O96017 whole entry): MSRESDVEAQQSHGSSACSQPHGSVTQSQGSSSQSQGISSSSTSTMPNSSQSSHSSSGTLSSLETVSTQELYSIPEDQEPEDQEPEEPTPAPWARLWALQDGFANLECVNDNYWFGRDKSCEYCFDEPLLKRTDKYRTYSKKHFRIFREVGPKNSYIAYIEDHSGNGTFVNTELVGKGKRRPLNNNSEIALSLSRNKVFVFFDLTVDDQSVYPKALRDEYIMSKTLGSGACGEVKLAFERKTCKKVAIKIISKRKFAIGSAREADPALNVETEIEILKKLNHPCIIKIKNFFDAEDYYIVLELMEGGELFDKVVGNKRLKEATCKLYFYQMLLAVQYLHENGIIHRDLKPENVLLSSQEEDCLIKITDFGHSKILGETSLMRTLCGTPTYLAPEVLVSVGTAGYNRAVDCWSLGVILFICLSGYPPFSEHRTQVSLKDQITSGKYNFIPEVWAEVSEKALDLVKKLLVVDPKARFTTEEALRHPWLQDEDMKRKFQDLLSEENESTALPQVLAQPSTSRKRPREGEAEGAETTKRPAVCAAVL

CCCOc1ccc([C@H]2[C@H](C(=O)O)[C@@H](c3ccc4c(c3)OCO4)CN2CC(=O)Nc2c(CC)cccc2CC)cc1 [A-192621]
residual activity [1]: 90% | residual activity [2]: 100% | residual activity [3]: 84% | % Inhibition of Control Values (Mean n=2) [4]: 13.2% | residual activity [5]: 87% | residual activity [6]: 65% | residual activity [7]: 85% | residual activity [8]: 59% | residual activity [9]: 87% | residual activity [10]: 85% | residual activity [11]: 97% | residual activity [12]: 78% | residual activity [13]: 95% | residual activity [14]: 89% | residual activity [15]: 100% | residual activity [16]: 81% | residual activity [17]: 47% | residual activity [18]: 100% | % Inhibition of Control Specific Binding (Mean n=2) [19]: -1.5% | residual activity [20]: 100% | residual activity [21]: 55% | residual activity [22]: 81% | residual activity [23]: 74% | residual activity [24]: 97% | residual activity [25]: 100% | residual activity [26]: 88% | residual activity [27]: 74% | residual activity [28]: 84% | residual activity [29]: 97% | residual activity [30]: 87% | residual activity [31]: 85% | residual activity [32]: 88% | residual activity [33]: 70% | residual activity [34]: 92% | % Inhibition of Control Specific Binding (Mean n=2) [35]: -2% | residual activity [36]: 58% | inhibition at 60 min, 10 µM [37]: -12.3%

CCCOc1ccc([C@@H]2[C@@H](C(=O)O)[C@H](c3ccc4c(c3)OCO4)CN2CC(=O)Nc2c(CC)cccc2CC)cc1 [A-1806262]
residual activity [1]: 89% | residual activity [2]: 100% | residual activity [3]: 83% | % Inhibition of Control Values (Mean n=2) [4]: 2.3% | residual activity [5]: 93% | residual activity [6]: 81% | residual activity [7]: 100% | residual activity [8]: 100% | residual activity [9]: 97% | residual activity [10]: 99% | residual activity [11]: 93% | residual activity [12]: 91% | residual activity [13]: 98% | residual activity [14]: 96% | residual activity [15]: 100% | residual activity [16]: 71% | residual activity [17]: 75% | residual activity [18]: 100% | % Inhibition of Control Specific Binding (Mean n=2) [19]: 0.2% | residual activity [20]: 100% | residual activity [21]: 76% | residual activity [22]: 58% | residual activity [23]: 85% | residual activity [24]: 98% | residual activity [25]: 99% | residual activity [26]: 98% | residual activity [27]: 89% | residual activity [28]: 100% | residual activity [29]: 75% | residual activity [30]: 87% | residual activity [31]: 82% | residual activity [32]: 96% | residual activity [33]: 87% | residual activity [34]: 59% | % Inhibition of Control Specific Binding (Mean n=2) [35]: -1.8% | residual activity [36]: 83% | inhibition at 60 min, 10 µM [37]: -14.5%
